ChEMBL document CHEMBL5316298, “Discovery of Amphiphilic Xanthohumol Derivatives as Membrane-Targeting Antimicrobials against Methicillin-Resistant Staphylococcus aureus” (J Med Chem, 2023)

How the values were obtained:
Staphylococcus aureus [1] = experiment: Antibacterial activity against methicillin-resistant Staphylococcus aureus clinical isolate 1 incubated for 16 to 18 hrs by CLSI-based microbroth dilution method; assay type: functional; settings: time 16-18 hrs
[2] = Toxicity in KM mouse infected with methicillin-resistant Staphylococcus aureus 3 assessed as swelling of renal tubular epithelial cells with granular degeneration at 5 to 10 mg/kg administered into skin infection site measured after 24 hrs by H and E staining based analysis; assay type: organism-based; settings: in vivo, topical_or_ocular, dose 5-10 mg/kg
Staphylococcus aureus [3] = experiment: Anti-MRSA activity against methicillin-resistant Staphylococcus aureus 3 incubated for 16 to 18 hrs in presence of 64 ug/ml cardiolipin by checkerboard broth dilution method (reference value: 1 ug/ml); assay type: functional; settings: time 16-18 hrs
[4] = Toxicity in KM mouse assessed as effect on creatinine level at 20 mg/kg, sc administered into middle dorsum and measured after 24 hrs by routine blood test; assay type: organism-based; settings: in vivo
[5] = Toxicity in KM mouse assessed as effect on platelet count at 20 mg/kg, sc administered into middle dorsum and measured after 24 hrs by routine blood test; assay type: organism-based; settings: in vivo

For `CCCN(CCC)C(=O)C[N+](C)(C)CCCCOc1ccc(/C=C/C(=O)c2c(OC)cc3c(c2O)C=CC(C)(C)O3)cc1.[Br-]`, the MIC (Staphylococcus aureus [1]) was 2 µg/mL, the Activity [2] was “Non-Toxic” and the MIC (Staphylococcus aureus [3]) was 32 µg/mL. For the same molecule, the Activity [4] was “Non-Toxic” and the Activity [5] was “Non-Toxic”.
